Values of other authors, collected in US7632656B2, “High performance liquid chromatography with an aqueous mobile phase for analysis of drug and its metabolite” (Cellseed Inc., priority 2003, dated 2009).

Conditions: listed with the structures of the CYP probe drugs; method not stated

Row | SMILES | logP
1 | CCOc1ccc(NC(C)=O)cc1 [Phenacetin] | 0.985
2 | CC12CCC(=O)C=C1CCC1C2CCC2(C)C(O)CCC12 (centres unmarked) [Testosterone] | 2.899
